Values joined by “and” are separate entries in the source; they are usually repeats but may differ in a detail not shown here. Equal values may be shown once. Marks after values point to notes of the source that are not given here.
What was measured:
Type in all cases: cell-based
lactobacilli = assay: In vitro fermentation of pig feces, lactobacilli count (Example 2); conditions: 200 mg/L, 24 hours
Method: (§1) The mean values affected by different indexes indicate significant differences (p<0.05). The vertical axis of the graph determines the log 10(cfu/g feces) and the horizontal axis determines the compound. The described assays are carried out using complete bacterial inocula obtained from feces of piglets in post-weaning stage. Two of the compounds (referenced as PTS and as PTSO) are assayed in a lower dose range (50-400 mg/L).

bifidobacteria = assay: In vitro fermentation of pig feces, bifidobacteria count (Example 2); conditions: 200 mg/L, 24 hours
Method: as §1

[1] = system: microbiota of the ruminal inoculum (ruminal fluid of goats); assay: In vitro ruminal degradation of experimental diets (Example 3); conditions: for DDM (degradability of dry matter), mean / DOM (degradability of organic matter), mean: 48 hours
Method: The Effect of Different Doses of the Compounds Object of Study on the Ruminal Degradation of Two Different Diets the Composition of which is in Table 1 is Studied The diets consist of alfalfa hay (standard maintenance diet for ruminant animals) or of a mixture of 50% alfalfa hay and a commercial concentrate (standard lactation diet for ruminant animals). In vitro incubation is performed using ruminal fluid of goats as inoculum.

[2] = system: ruminal fermentation (methane-producing microorganisms); assay: Production of gas by in vitro fermentation of the diets (Example 4); conditions: for inhibitory effect on production of fermentation gas, dependence on time: 24 and 48 hours; for doses at which the inhibitory effect on production of fermentation gas is observed: diet D2
Method: The effect of different doses of the compounds object of study on the production of gas promoted by in vitro fermentation for 24 and 48 hours of the diets the composition of which is included in Table 1 is studied.

[3] = system: total anaerobes, total aerobes, enterobacteria, coliform bacteria, bacteroides, clostridia, lactobacilli and bifidobacteria; assay: In vitro fermentation of pig feces inoculum, counts of all bacterial groups (Example 1); conditions: 50 to 2000 mg/L in culture medium, 24 hours in vitro fermentation, inocula from piglet feces
Method: FIG. 1 is a graph relating to Example 1 (study of the porcine digestive microbial composition) showing the effect of different concentrations of the compound PTSO after 24 hours of in vitro fermentation on the total anaerobic bacteria, total aerobic bacteria, enterobacteria, coliform bacteria, bacteroides, clostridia, lactobacilli and bifidobacteria count present in pig feces. The vertical axis of the graph determines the log 10(cfu/g feces) and the horizontal axis determines the bacterial group.
The described assays are carried out using complete bacterial inocula obtained from feces of piglets in post-weaning stage.

[4] = Alfalfa hay + concentrate, 10 ppm
[5] = Alfalfa hay + concentrate, 25 ppm
[6] = Alfalfa hay + concentrate, 50 ppm
[7] = Alfalfa hay + concentrate, 300 ppm
[8] = Alfalfa hay + concentrate, 750 ppm
[9] = Alfalfa hay + concentrate, 1000 ppm
[10] = Alfalfa hay + concentrate, 2000 ppm
[11] = Table 4: diet D1, 48 hours, concentration 2000, replicates
[12] = diet D1, 50 to 750 ppm, 24 hours in vitro incubation
[13] = diet D1, 24 hours, 50 ppm, replicates
[14] = diet D1, 24 hours, 750 ppm, replicates
[15] = diet D1, 48 hours, 10 ppm, replicates
[16] = diet D1, 48 hours, 25 ppm, replicates
[17] = diet D1, 48 hours, concentration 50, replicates
[18] = diet D1, 48 hours, concentration 300, replicates
[19] = diet D1, 48 hours, concentration 750, replicates
[20] = diet D1, 48 hours, concentration 1000, replicates
[21] = diet D1, 48 hours, concentration 2000, replicates
[22] = diet D2, 48 hours, 10 ppm, replicates
[23] = diet D2, 48 hours, 25 ppm, replicates
[24] = diet D2, 48 hours, concentration 50, replicates
[25] = diet D2, 48 hours, concentration 300, replicates
[26] = diet D2, 48 hours, concentration 750, replicates
[27] = diet D2, 48 hours, concentration 1000, replicates
[28] = diet D2, 48 hours, concentration 2000, replicates

Substance: propyl propylthiosulfinate [PTS]
- lactobacilli logarithmic reduction in the population (lactobacilli): approximately 50%
- bifidobacteria logarithmic reduction in the population (bifidobacteria): approximately 50%
- DDM (degradability of dry matter), mean [1, 4]: 63.9^ab
- DOM (degradability of organic matter), mean [1, 4]: 63.9^ab
- DDM (degradability of dry matter), mean [1, 5]: 59.4^b
- DOM (degradability of organic matter), mean [1, 5]: 59.7^b
- DDM (degradability of dry matter), mean [1, 6]: 59.8^b
- DOM (degradability of organic matter), mean [1, 6]: 59.8^b
- DDM (degradability of dry matter), mean [1, 7]: 48.3^c
- DOM (degradability of organic matter), mean [1, 7]: 47.8^c
- DDM (degradability of dry matter), mean [1, 8]: 43.5^c
- DOM (degradability of organic matter), mean [1, 8]: 45.5^c
- DDM (degradability of dry matter), mean [1, 9]: 45.6^c
- DOM (degradability of organic matter), mean [1, 9]: 45.1^c
- DDM (degradability of dry matter), mean [1, 10]: 45.3^c
- DOM (degradability of organic matter), mean [1, 10]: 38.7^d
- DDM (degradability of dry matter), mean ([1]; Alfalfa hay, 10 ppm): 54.2^a
- DOM (degradability of organic matter), mean ([1]; Alfalfa hay, 10 ppm): 54.5^a
- DDM (degradability of dry matter), mean ([1]; Alfalfa hay, 25 ppm): 52.3^a
- DOM (degradability of organic matter), mean ([1]; Alfalfa hay, 25 ppm): 42.9^bc
- DDM (degradability of dry matter), mean ([1]; Alfalfa hay, 50 ppm): 46.6^b
- DOM (degradability of organic matter), mean ([1]; Alfalfa hay, 50 ppm): 46.7^b
- DDM (degradability of dry matter), mean ([1]; Alfalfa hay, 300 ppm): 40.6^c
- DOM (degradability of organic matter), mean ([1]; Alfalfa hay, 300 ppm): 41.0^c
- DDM (degradability of dry matter), mean ([1]; Alfalfa hay, 750 ppm): 39.6^c
- DOM (degradability of organic matter), mean ([1]; Alfalfa hay, 750 ppm): 39.2^c
- DDM (degradability of dry matter), mean ([1]; Alfalfa hay, 1000 ppm): 39.1^c
- DOM (degradability of organic matter), mean ([1]; Alfalfa hay, 1000 ppm): 38.8^c
- DDM (degradability of dry matter), mean ([1]; Alfalfa hay, 2000 ppm): 39.6^c
- DOM (degradability of organic matter), mean ([1]; Alfalfa hay, 2000 ppm): 40.0^c
- DDM [1, 11]: 40.2% and 38.9%
- effect on degradation of dry matter [1, 12]: reduction of the degradation of dry matter
- effect on degradation of organic matter [1, 12]: do not affect
- Mean DDM ([1]; diet D1, 24 hours, 50 ppm): 37.1%
- Mean DOM ([1]; diet D1, 24 hours, 50 ppm): 38.5%
- DDM (degradation of dry matter) [1, 13]: 37.7% (2×) and 37.9% and 34.1% and 35.6% and 39.3%
- DOM (degradation of organic matter) [1, 13]: 38.0% and 38.9%
- Mean DDM ([1]; diet D1, 24 hours, 300 ppm): 37.4%
- DDM (degradation of dry matter) ([1]; diet D1, 24 hours, 300 ppm, replicates): 38.5% and 40.4% and 37.6% and 36.0% and 35.7% and 36.2%
- Mean DDM ([1]; diet D1, 24 hours, 750 ppm): 39.5%
- Mean DOM ([1]; diet D1, 24 hours, 750 ppm): 38.1%
- DDM (degradation of dry matter) [1, 14]: 40.8% and 37.7% and 43.2% and 39.5% and 37.9% and 38.0%
- DOM (degradation of organic matter) [1, 14]: 39.4% and 36.8%
- DDM [1, 15]: 54.5% and 53.9%
- DOM [1, 15]: 54.8% and 54.2%
- DDM [1, 16]: 52.0% and 52.5%
- DOM [1, 16]: 43.0% and 42.9%
- DDM [1, 17]: 46.2% and 46.9%
- DOM [1, 17]: 47.5% and 45.9%
- DDM [1, 18]: 41.8% and 39.4%
- DOM [1, 18]: 42.5% and 39.5%
- DDM [1, 19]: 39.6% and 39.7%
- DOM [1, 19]: 38.6% and 39.7%
- DDM [1, 20]: 39.1%
- DOM [1, 20]: 38.6% and 38.9%
- DOM [1, 21]: 40.3% and 39.7%
- DDM [1, 22]: 64.0% and 63.9%
- DOM [1, 22]: 63.8% and 64.0%
- DDM [1, 23]: 57.4% and 61.4%
- DOM [1, 23]: 57.6% and 61.8%
- DDM [1, 24]: 60.9% and 58.7%
- DOM [1, 24]: 60.9% and 58.8%
- DDM [1, 25]: 49.3% and 47.2%
- DOM [1, 25]: 48.6% and 47.1%
- DDM [1, 26]: 44.8% and 42.2%
- DOM [1, 26]: 46.5% and 44.6%
- DDM [1, 27]: 46.1% and 45.1%
- DOM [1, 27]: 45.6% and 44.7%
- DDM [1, 28]: 45.7% and 44.9%
- DOM [1, 28]: 38.9% and 38.5%
- inhibitory effect on production of fermentation gas, dependence on dose [2]: dose-dependent
- inhibitory effect on production of fermentation gas, dependence on time [2]: time-dependent
- doses at which the inhibitory effect on production of fermentation gas is observed [2]: 10 ppm

Substance: propyl propylthiosulfonate [PTSO]
- lactobacilli logarithmic reduction in the population (lactobacilli): approximately 50%
- bifidobacteria logarithmic reduction in the population (bifidobacteria): approximately 50%
- growth of the bacterial groups studied [3]: inhibited the growth of all the bacterial groups studied
- DDM (degradability of dry matter), mean [1, 4]: 63.4^a
- DOM (degradability of organic matter), mean [1, 4]: 63.8^a
- DDM (degradability of dry matter), mean [1, 5]: 62.5^a
- DOM (degradability of organic matter), mean [1, 5]: 60.6^a
- DDM (degradability of dry matter), mean [1, 6]: 61.1^a
- DOM (degradability of organic matter), mean [1, 6]: 63.5^a
- DDM (degradability of dry matter), mean [1, 7]: 45.2^b
- DOM (degradability of organic matter), mean [1, 7]: 44.7^b
- DDM (degradability of dry matter), mean [1, 8]: 38.1^c
- DOM (degradability of organic matter), mean [1, 8]: 37.4^c
- DDM (degradability of dry matter), mean [1, 9]: 37.2^c
- DOM (degradability of organic matter), mean [1, 9]: 36.0^c
- DDM (degradability of dry matter), mean [1, 10]: 36.7^c
- DOM (degradability of organic matter), mean [1, 10]: 32.3^c
- DDM (degradability of dry matter), mean ([1]; Alfalfa hay, 10 ppm): 55.5^a
- DOM (degradability of organic matter), mean ([1]; Alfalfa hay, 10 ppm): 48.4^ab
- DDM (degradability of dry matter), mean ([1]; Alfalfa hay, 25 ppm): 54.5^a
- DOM (degradability of organic matter), mean ([1]; Alfalfa hay, 25 ppm): 53.2^ab
- DDM (degradability of dry matter), mean ([1]; Alfalfa hay, 50 ppm): 45.6^b
- DOM (degradability of organic matter), mean ([1]; Alfalfa hay, 50 ppm): 45.9^b
- DDM (degradability of dry matter), mean ([1]; Alfalfa hay, 300 ppm): 36.2^c
- DOM (degradability of organic matter), mean ([1]; Alfalfa hay, 300 ppm): 35.5^c
- DDM (degradability of dry matter), mean ([1]; Alfalfa hay, 750 ppm): 30.4^d
- DOM (degradability of organic matter), mean ([1]; Alfalfa hay, 750 ppm): 29.9^c
- DDM (degradability of dry matter), mean ([1]; Alfalfa hay, 1000 ppm): 34.5^c
- DOM (degradability of organic matter), mean ([1]; Alfalfa hay, 1000 ppm): 33.7^c
- DDM (degradability of dry matter), mean ([1]; Alfalfa hay, 2000 ppm): 30.3^d
- DOM (degradability of organic matter), mean ([1]; Alfalfa hay, 2000 ppm): 29.0^c
- Mean DDM ([1]; Table 3: diet D1, 48 hours, 2000 ppm): 31.6%
- DDM (degradation of dry matter) ([1]; Table 3: diet D1, 48 hours, 2000 ppm, replicates): 30.9% and 30.2% and 32.0% and 31.4% and 32.2% and 32.7%
- DDM [1, 11]: 31.9% and 28.7%
- effect on degradation of dry matter and organic matter ([1]; diet D1, 2000 ppm, 48 hours in vitro incubation): higher reduction
- DDM [1, 15]: 54.9% and 56.1%
- DOM [1, 15]: 45.0% and 51.8%
- DDM [1, 16]: 54.1% and 55.0%
- DOM [1, 16]: 52.9% and 53.6%
- DDM [1, 17]: 45.5% and 45.7%
- DOM [1, 17]: 46.0% and 45.7%
- DDM [1, 18]: 36.6% and 35.8%
- DOM [1, 18]: 36.2% and 34.9%
- DDM [1, 19]: 31.0% and 29.9%
- DOM [1, 19]: 30.2% and 29.6%
- DDM [1, 20]: 33.4% and 35.6%
- DOM [1, 20]: 32.6% and 34.7%
- DOM [1, 21]: 30.6% and 27.5%
- DDM [1, 22]: 63.1% and 63.7%
- DOM [1, 22]: 63.2% and 64.3%
- DDM [1, 23]: 62.4% and 62.7%
- DOM [1, 23]: 58.4% and 62.8%
- DDM [1, 24]: 61.1% and 63.9%
- DOM [1, 24]: 62.2% and 64.8%
- DDM [1, 25]: 44.4% and 46.0%
- DOM [1, 25]: 43.7% and 45.6%
- DDM [1, 26]: 39.9% and 36.3%
- DOM [1, 26]: 39.0% and 35.8%
- DDM [1, 27]: 35.9% and 38.4%
- DOM [1, 27]: 34.8% and 37.3%
- DDM [1, 28]: 37.1% and 36.3%
- DOM [1, 28]: 32.7% and 32.0%
- inhibitory effect on production of fermentation gas, dependence on dose [2]: dose-dependent
- inhibitory effect on production of fermentation gas, dependence on time [2]: time-dependent
- doses at which the inhibitory effect on production of fermentation gas is observed [2]: 10 ppm

— US20100035984A1, “Use of an antibacterial compound which is derived from alliaceae, as a natural additive in animal feed” (DMC Research Center, S.L., priority 2006, published 2010)
